Test: log P by HPLC on a reversed-phase column (C18), EEC Directive 79/831 Annex V.A8
Assay type: physicochemical
Settings: for chromatographic logP: read-out: log P (HCOOH)
Method: The stated log P values were determined in accordance with EEC Directive 79/831 Annex V.A8 by HPLC (High Performance Liquid Chromatography) using a reversed-phase column (C18).

[1] = HCOOH, Table 4, compounds of formula I-A-Q4
[2] = HCOOH, compounds of the formula (IX), Table 11
[3] = HPLC, reversed-phase C18, mobile phase with formic acid

SMILES: Nc1c(-c2cccc(Cl)c2)c(C(F)(F)F)nn1-c1ccc(C(=O)NCC(F)(F)F)cc1 [I-A-Q2-085]
- log P (HCOOH) (HCOOH): I-A-Q2-085: log P (HCOOH): 3.47

SMILES: CNC(=O)c1ccc(-n2nc(C(F)(F)F)c(-c3cccc(Cl)c3)c2N)cc1 [I-A-Q2-094]
- log P (HCOOH) (HCOOH): I-A-Q2-094: log P (HCOOH): 2.76

SMILES: Cc1cc(-n2nc(C(F)(F)F)c(-c3cc(Cl)cc(Cl)c3)c2N)ccc1C(=O)N(C)CC(F)(F)C(F)F [I-A-Q2-033]
- log P (HCOOH) (HCOOH): I-A-Q2-033: log P (HCOOH): 4.51

SMILES: CC(C)Cc1nn(-c2ccc(Cl)cn2)c(N)c1-c1ccc(Cl)cc1 [I-A-Q4-062]
- log P (HCOOH) [1]: I-A-Q4-062: log P (HCOOH): 5.97

SMILES: Nc1c(-c2cc(Cl)cc(Cl)c2)c(C(F)(F)F)nn1-c1ccc(S(=O)(=O)NC2CC2)c(Br)c1 [I-A-Q4-111]
- log P (HCOOH) [1]: I-A-Q4-111: log P (HCOOH): 4.77

SMILES: Cc1cc(-n2nc(C(F)(F)F)c(-c3ccc(I)cc3)c2N)ccc1C(=O)NCC(F)(F)C(F)F [I-A-Q2-313]
- log P (HCOOH) (HCOOH): I-A-Q2-313: log P (HCOOH): 3.85

SMILES: Cc1cc(-n2nc(C)c(-c3cc(F)ccc3F)c2N)ccc1C(=O)NCC(F)(F)C(F)F [I-A-Q2-332]
- log P (HCOOH) (HCOOH): I-A-Q2-332: log P (HCOOH): 2.59

SMILES: Cc1cc(-n2nc(C(F)(F)F)c(-c3cc(Cl)cc(Cl)c3)c2N)ccc1C(=O)NC1(c2ccccn2)CC1 [I-A-Q2-244]
- log P (HCOOH) (HCOOH): I-A-Q2-244: log P (HCOOH): 3.68

SMILES: Nc1c(-c2cccc(Br)c2)c(C(F)(F)F)nn1-c1ccc(C(=O)NC2CC2)cc1 [I-A-Q2-173]
- log P (HCOOH) (HCOOH): I-A-Q2-173: log P (HCOOH): 3.11

SMILES: Nc1c(-c2cc(Cl)cc(Cl)c2)c(C(F)(F)F)nn1-c1ccc(C(=O)NCc2ccccn2)cn1 [I-A-Q2-105]
- log P (HCOOH) (HCOOH): I-A-Q2-105: log P (HCOOH): 3.61

SMILES: Nc1c(-c2ccc(Cl)cc2)c(-c2ccccc2)nn1-c1ccc(C(=O)NCc2ncccn2)cc1 [I-A-Q2-076]
- log P (HCOOH) (HCOOH): I-A-Q2-076: log P (HCOOH): 2.89

SMILES: CCC(C)NC(=O)c1ccc(-n2nc(C(F)(F)F)c(-c3cc(Cl)cc(Cl)c3)c2N)cc1 (centres unmarked) [I-A-Q2-145]
- log P (HCOOH) (HCOOH): I-A-Q2-145: log P (HCOOH): 4.34

SMILES: CCOC(=O)c1ccc(-n2nc(C(F)(F)F)c(-c3ccc(Cl)cc3Cl)c2N)cc1 [I-A-Q4-085]
- log P (HCOOH) [1]: I-A-Q4-085: log P (HCOOH): 4.57

SMILES: Cc1cc(-n2nc(C(F)(F)F)c(-c3cc(Cl)cc(Cl)c3)c2N)ccc1C(=O)NC1CCCC1 [I-A-Q2-223]
- log P (HCOOH) (HCOOH): I-A-Q2-223: log P (HCOOH): 4.45

SMILES: Nc1c(-c2ccc(F)c(Cl)c2)c(C(F)(F)F)nn1-c1ccc(Cl)cn1 [I-A-Q4-047]
- log P (HCOOH) [1]: I-A-Q4-047: log P (HCOOH): 4.95

SMILES: Cc1ccccc1-c1c(C(F)(F)F)nn(-c2ccc(Cl)cn2)c1N [I-A-Q4-054]
- log P (HCOOH) [1]: I-A-Q4-054: log P (HCOOH): 4.64

SMILES: Nc1[nH]nc(C(F)(F)F)c1-c1ccc(F)cc1 [IX-202]
- log P (HCOOH) [2]: IX-202: log P (HCOOH): 2.16

SMILES: Cc1cc(-n2nc(C(F)(F)F)c(-c3ccccc3Cl)c2N)ccc1C(=O)NCC(F)(F)C(F)F [I-A-Q2-308]
- log P (HCOOH) (HCOOH): I-A-Q2-308: log P (HCOOH): 3.23

SMILES: Cc1cc(-n2nc(C(F)(F)F)c(-c3ccc(Cl)c(Cl)c3)c2N)ccc1C(=O)O [I-A-Q4-012, 4-[5-Amino-4-(3,4-dichlorophenyl)-3-(trifluoromethyl)-1H-pyrazol-1-yl]-2-methylbenzoic acid]
- chromatographic logP [3]: 3.92

SMILES: Nc1c(-c2ccc(Cl)cc2)c(-c2ccccc2)nn1-c1ccc(Cl)cn1 [I-A-Q4-028]
- log P (HCOOH) [1]: I-A-Q4-028: log P (HCOOH): 5.64

SMILES: Cc1cc(-n2nc(C(F)(F)F)c(-c3cc(Cl)cc(Cl)c3)c2N)ccc1C(=O)NCC(C)C [I-A-Q2-227]
- log P (HCOOH) (HCOOH): I-A-Q2-227: log P (HCOOH): 4.40

SMILES: Cc1cc(-n2nc(C)c(-c3ccc(F)cc3)c2N)ccc1C(=O)NCC(F)(F)C(F)F [I-A-Q2-326]
- log P (HCOOH) (HCOOH): I-A-Q2-326: log P (HCOOH): 2.51

SMILES: Nc1c(-c2cccc(F)c2)c(C(F)(F)F)nn1-c1ccc(Cl)cn1 [I-A-Q4-049]
- log P (HCOOH) [1]: I-A-Q4-049: log P (HCOOH): 4.51

SMILES: Cc1cc(-n2nc(C(F)(F)F)c(-c3cc(Cl)cc(Cl)c3)c2N)ccc1C(=O)N(C)C(C)c1ccccn1 (centres unmarked) [I-A-Q2-210]
- log P (HCOOH) (HCOOH): I-A-Q2-210: log P (HCOOH): 4.28

SMILES: Nc1c(-c2cc(Cl)cc(Cl)c2)c(C(F)(F)F)nn1-c1ccc(C(=O)NCC(F)(F)C(F)F)c(Cl)c1 [I-A-Q2-384]
- log P (HCOOH) (HCOOH): I-A-Q2-384: log P (HCOOH): 4.53

SMILES: Cc1cc(-n2nc(C(F)(F)F)c(-c3cc(Cl)cc(Cl)c3)c2N)ccc1C(=O)NCc1cc(F)cc(F)c1 [I-A-Q2-040]
- log P (HCOOH) (HCOOH): I-A-Q2-040: log P (HCOOH): 4.57

SMILES: Cc1cc(-n2nc(C)c(-c3ccc(Cl)cc3)c2N)ccc1C(=O)NCC(F)(F)C(F)F [I-A-Q2-325]
- log P (HCOOH) (HCOOH): I-A-Q2-325: log P (HCOOH): 2.85

SMILES: Cc1cc(-n2nc(C(F)(F)F)c(-c3cc(Cl)cc(Cl)c3)c2N)ccc1C(=O)NC(=C(Cl)C#N)C(F)(F)F [I-A-Q2-047]
- log P (HCOOH) (HCOOH): I-A-Q2-047: log P (HCOOH): 4.94

SMILES: Nc1c(-c2cccc(Br)c2)c(C(F)(F)F)nn1-c1ccc(C(=O)NCc2ccccn2)cc1 [I-A-Q2-174]
- log P (HCOOH) (HCOOH): I-A-Q2-174: log P (HCOOH): 2.50

SMILES: N#Cc1cc(-n2nc(C(F)(F)F)c(-c3cc(Cl)cc(Cl)c3)c2N)ccc1-n1cc(Br)cn1 [I-A-Q1-078]
- log P (HCOOH) [3]: I-A-Q1-078: log P (HCOOH): 4.83

SMILES: Nc1c(-c2ccc(F)cc2F)c(C(F)F)nn1-c1ccc(Cl)cn1 [I-A-Q4-056]
- log P (HCOOH) [1]: I-A-Q4-056: log P (HCOOH): 3.84

SMILES: CC(C)NC(=O)c1ccc(-n2nc(C(F)(F)F)c(-c3ccc(Cl)c(Cl)c3)c2N)cc1 [I-A-Q2-154]
- log P (HCOOH) (HCOOH): I-A-Q2-154: log P (HCOOH): 3.75

SMILES: CSc1c(-c2cc(Cl)cc(Cl)c2)c(C(F)(F)F)nn1-c1ccc(C(=O)NCc2ncccn2)c(C)c1 [I-A-Q2-276]
- log P (HCOOH) (HCOOH): I-A-Q2-276: log P (HCOOH): 4.50

SMILES: CC(NC(=O)c1ccc(-n2nc(C(F)(F)F)c(-c3ccc(Cl)cc3)c2N)cc1)c1ccccn1 (centres unmarked) [I-A-Q2-165]
- log P (HCOOH) (HCOOH): I-A-Q2-165: log P (HCOOH): 2.72

SMILES: C=CCNC(=O)c1ccc(-n2nc(C(F)(F)F)c(-c3cc(Cl)cc(Cl)c3)c2N)nc1 [I-A-Q2-104]
- log P (HCOOH) (HCOOH): I-A-Q2-104: log P (HCOOH): 4.46

SMILES: Cc1cc(-n2nc(C(F)(F)F)c(-c3cccc(Br)c3)c2N)ccc1C(=O)NCC1CC1 [I-A-Q2-416]
- log P (HCOOH) (HCOOH): I-A-Q2-416: log P (HCOOH): 3.81

SMILES: Cc1cc(-n2nc(C(F)(F)F)c(-c3cc(Cl)cc(Cl)c3)c2N)ccc1C(=O)NC(c1ccccc1)C(F)(F)F (centres unmarked) [I-A-Q2-241]
- log P (HCOOH) (HCOOH): I-A-Q2-241: log P (HCOOH): 4.89

SMILES: Cc1cc(-n2nc(C)c(-c3cccc(Cl)c3)c2N)ccc1C(=O)NCC(F)(F)C(F)F [I-A-Q2-331]
- log P (HCOOH) (HCOOH): I-A-Q2-331: log P (HCOOH): 2.85

SMILES: Nc1[nH]nc(C(F)(F)F)c1-c1ccc(Cl)c(Cl)c1 [IX-38]
- log P (HCOOH) [2]: IX-38: log P (HCOOH): 2.80

SMILES: N#Cc1cc(-n2nc(C(F)(F)C(F)(F)F)c(-c3cc(C(F)(F)F)cc(C(F)(F)F)c3)c2N)ccc1-n1cncn1 [I-A-Q1-050]
- log P (HCOOH) [3]: I-A-Q1-050: log P (HCOOH): 4.34

SMILES: Cc1cc(-n2nc(C(F)(F)F)c(-c3ccc(Cl)cc3Cl)c2N)ccc1C(=O)NCc1ccccn1 [I-A-Q2-348]
- log P (HCOOH) (HCOOH): I-A-Q2-348: log P (HCOOH): 2.84

SMILES: Cc1cc(-n2nc(C(F)(F)F)c(-c3ccc(Cl)c(Cl)c3)c2N)ccc1C(=O)NCc1ccccn1 [I-A-Q2-347]
- log P (HCOOH) (HCOOH): I-A-Q2-347: log P (HCOOH): 3.11

SMILES: N#Cc1cc(-n2nc(C(F)(F)F)c(-c3cc(Cl)cc(Cl)c3)c2N)ccc1-n1ccnc1 [I-A-Q1-076]
- log P (HCOOH) [3]: I-A-Q1-076: log P (HCOOH): 2.98

SMILES: Cc1nn(-c2ccc(-n3cncn3)c(C#N)c2)c(N)c1-c1ccccc1Cl [I-A-Q1-060]
- log P (HCOOH) [3]: I-A-Q1-060: log P (HCOOH): 2.27

SMILES: Cc1cc(-n2nc(C)c(-c3ccc(F)cc3)c2N)ccc1C(=O)NCc1ccccn1 [I-A-Q2-367]
- log P (HCOOH) (HCOOH): I-A-Q2-367: log P (HCOOH): 1.59

SMILES: Cc1cc(-n2nc(C(F)(F)F)cc2N)ccc1C(=O)O [XI-A-084]
- log P (HCOOH) (HCOOH): XI-A-084: log P (HCOOH): 3.53

SMILES: Cc1cc(-n2nc(C(F)(F)F)c(-c3cc(Cl)cc(Cl)c3)c2N)ccc1C(=O)NC(C)c1ccc(Cl)nc1 (centres unmarked) [I-A-Q2-248]
- log P (HCOOH) (HCOOH): I-A-Q2-248: log P (HCOOH): 4.34

SMILES: Cc1cc(-n2nc(C(F)(F)c3cccc(C(F)(F)F)c3)c(-c3cc(Cl)cc(C(F)(F)F)c3)c2N)ccc1C(=O)NCC(F)(F)C(F)F [I-A-Q2-286]
- log P (HCOOH) (HCOOH): I-A-Q2-286: log P (HCOOH): 4.89

SMILES: CC(=O)NCc1ccc(-n2nc(C(F)(F)F)c(-c3cc(Cl)cc(Cl)c3)c2N)cc1Cl [I-A-Q3-023]
- log P (HCOOH) [3]: I-A-Q3-023: log P (HCOOH): 3.70

SMILES: CCOC(=O)c1ccc(-n2nc(C(F)(F)F)c(-c3ccc(Cl)c(Cl)c3)c2N)cc1C [I-A-Q4-013, Ethyl 4-[5-amino-4-(3,4-dichlorophenyl)-3-(trifluoromethyl)-1H-pyrazol-1-yl]-2-methylbenzoate]
- chromatographic logP [3]: 5.24

SMILES: COC(=O)c1ccc(-n2nc(C(F)(F)F)c(-c3cc(Cl)cc(Cl)c3)c2N)cc1N(C)C [I-A-Q4-119]
- log P (HCOOH) [1]: I-A-Q4-119: log P (HCOOH): 4.71

SMILES: Nc1c(-c2ccc(Cl)c(Cl)c2)c(C(F)(F)F)nn1-c1ccc(C(=O)NCC(F)(F)F)cc1 [I-A-Q2-156]
- log P (HCOOH) (HCOOH): I-A-Q2-156: log P (HCOOH): 3.89

SMILES: Cc1cc(-n2nc(C(F)(F)F)c(-c3ccc(F)c(Cl)c3)c2N)ccc1C(=O)NCC(F)(F)C(F)F [I-A-Q2-309]
- log P (HCOOH) (HCOOH): I-A-Q2-309: log P (HCOOH): 3.65

SMILES: Nc1c(-c2ccc(Cl)cc2)c(C(F)F)nn1-c1ccc(Cl)cn1 [I-A-Q4-057]
- log P (HCOOH) [1]: I-A-Q4-057: log P (HCOOH): 4.45

SMILES: Cc1cc(-n2nc(C(F)(F)F)c(-c3ccc(Cl)cc3Cl)c2N)ccc1C(=O)NCC1CC1 [I-A-Q2-410]
- log P (HCOOH) (HCOOH): I-A-Q2-410: log P (HCOOH): 3.94

SMILES: Cc1cc(-n2nc(C(F)(F)F)c(-c3cc(Cl)cc(Cl)c3)c2N)ccc1C(=O)NCc1ccc(F)cn1 [I-A-Q2-039]
- log P (HCOOH) (HCOOH): I-A-Q2-039: log P (HCOOH): 3.94

Reference: US20110190365A1, “Insecticidal 4-phenyl-1H-pyrazoles” (Bayer Crop Science AG, priority 2008, published 2011)
